{"source": "patent US9458194B2", "about": "“Compounds useful in the treatment and/or care of the skin and their cosmetic or pharmaceutical compositions” (Lubrizol Advanced Materials, Inc., priority 2013, dated 2016)", "type_in_all_cases": "cell-based", "key": {"[1]": {"tested_on": "human LOXL1 gene promoter", "assay": "Luminescence assay of human LOXL1 gene promoter activation (Renilla luciferase)", "details": "16-24 hours", "description": "(§1) The effect of the compounds of the invention on the activity of the fibulin-5 and LOXL1 promoters was studied and compared to the levels of basal expression of the untreated cells (negative control) and with the effect of Interleukin-1β (IL-1β) in the same conditions.\n(§2) Cells from an epithelial cell line doubly transfected with fibulin-5 and LOXL1 human promoters in which the luciferase gene is under the regulatory control of said promoters (4×10^4 cells/well) were seeded in a white plate and in a 96-well transparent plate, both treated with polylysine, and were incubated in Dulbecco's Modified Eagle Medium (DMEM-Glutamax™), with 10% of FBS, 1% Penicillin-Streptomycin (P/S), 1 mg/ml of Geneticin® (G418) and […] at 37° C. in at atmosphere with 5% CO2. After the incubation, the cells were incubated for 6 hours at 37° C. in at atmosphere with 5% CO2 with DMEM without serum. Then, this medium was removed and the cells were treated with different compounds at 0.1 mg/ml, 0.5 mg/ml, 1 mg/ml or 2 mg/mL in DMEM/1% FBS for 16-24 hours. As a positive control to activate the fibulin-5 and LOXL1 promoters 10 ng/ml of IL-1β were used and as a negative control untreated cells were used, just with DMEM/1% FBS. The incubations and treatments were carried out in parallel in the white plate and the transparent plate and in triplicate for each condition. After the treatment, the relative light units per second were determined (RLU/s) in the white plate by means of consecutive quantification of the activities of Firefly luciferase (fibulin-5 promoter) and Renilla luciferase (LOXL1 promoter), and the number of total cells/well in the transparent plate by means of staining with Crystal Violet (CV). To determine the Firefly and Renilla luciferase activities the Dual-Glo Luciferase Assay System kit by Promega was used. The cells were briefly lysed and the Firefly luciferase substrate was added. After incubating for 10 min at 25° C., the RLU/s were quantified by luminescence reader (Lumistar-BMG). Then the Firefly signal was extinguished and the Renilla luciferase substrate was added. After incubating for 5 min at 25° C., the RLU/s were quantified by the same luminescence reader. With regard to the determination of the total number of cells by Crystal Violet, the CV dyes the DNA of the cells and the quantity of dye taken by the cells can be measured in an absorbency reader at 630 nm (Multiskan Ascent). The color obtained is directly proportional to the total number of cells per well. The cells were briefly incubated with 0.05% CV plus 4% Formalin for 20 minutes and after several washes with Milli-Q water, the cells were left to dry for 1-2 hours and then 0.1 M of HCl was added for its immediate reading. The RLU/s of the luciferases corresponding to each promoter were normalized by the average of the total number of cells per condition. Three independent assays with 3 measurements per assay were carried out for Ac-L-Asp-L-Val-L-Lys-L-Tyr-OH at 0.1 mg/mL and 1 mg/mL. 1 assay with 3 measurements was carried out for the other compounds and concentrations.\n(§3) The increase in the activity of the promoters with regard to the levels of expression of the negative control was determined."}, "LOXL1": {"tested_on": "LOXL1", "assay": "Immunofluorescence of LOXL1 protein expression in human dermal fibroblasts", "details": "0.5 mg/mL, 48 hours, HDFa", "description": "(§4) In this experiment the number of times that the expression of the proteins fibulin-5 and LOXL1 in human dermal fibroblasts is increased with regard to the basal levels in untreated cells (negative control) when treating the cells with 0.5 mg/ml of the product Ac-L-Asp-L-Val-L-Lys-L-Tyr-OH and it is compared with the effect of Interleukin-1β (IL-1β) at 20 ng/ml and TGF-β at 5 ng/ml (positive controls), which increase an average of 1.5 times and 2 times, respectively, the expression of these proteins, in the same conditions.\nAdult human dermal fibroblasts were seeded (HDFa) (2.5×10^3 cells/well) in a 96-well transparent plate, treated with polylysine, and were incubated in complete medium 106 for 72 hours at 37° C. in an atmosphere with 5% CO2. After the incubation, the cells were treated with the different compounds in complete medium 106 for 48 hours at 37° C. in an atmosphere with 5% CO2. As positive controls of increase of the expression of the proteins fibulin-5 and LOXL1, 5 ng/ml of TGF-β and 20 ng/ml of IL-1β were used and as a negative control untreated cells were used, just with complete medium 106. The incubations and the treatments were carried out in quadruplicate for each condition. After the treatment, the levels of expression of both proteins were quantified relatively by using specific fluorescent antibodies, photographic recording by microscopy and subsequent quantification of the fluorescent signal using image processing software, the number of total cells by fluorescent staining of the nuclei (DAPI) and subsequent quantification in the same images. […] 16 hours later all the samples were stained with DAPI (4′,6-Diamidino-2-Phenylindole), fluorescent marker for the staining of nuclei, and the photographic recording was carried out by fluorescence microscopy in a Leica microscope. 2-4 images were taken per condition and per protein and the fluorescent signals were quantified (IOD) corresponding to each protein and the nuclei by means of image analysis software. […]"}, "[2]": {"tested_on": "human fibulin-5 gene promoter", "assay": "Luminescence assay of human fibulin-5 gene promoter activation (Firefly luciferase)", "details": "16-24 hours", "description": "as §1, §2, §3"}, "fibulin-5": {"tested_on": "fibulin-5", "assay": "Immunofluorescence of fibulin-5 protein expression in human dermal fibroblasts", "details": "0.5 mg/mL, 48 hours, HDFa", "description": "as §4\nAdult human dermal fibroblasts were seeded (HDFa) (2.5×10^3 cells/well) in a 96-well transparent plate, treated with polylysine, and were incubated in complete medium 106 for 72 hours at 37° C. in an atmosphere with 5% CO2. After the incubation, the cells were treated with the different compounds in complete medium 106 for 48 hours at 37° C. in an atmosphere with 5% CO2. As positive controls of increase of the expression of the proteins fibulin-5 and LOXL1, 5 ng/ml of TGF-β and 20 ng/ml of IL-1β were used and as a negative control untreated cells were used, just with complete medium 106. The incubations and the treatments were carried out in quadruplicate for each condition. After the treatment, the levels of expression of both proteins were quantified relatively by using specific fluorescent antibodies, photographic recording by microscopy and subsequent quantification of the fluorescent signal using image processing software, the number of total cells by fluorescent staining of the nuclei (DAPI) and subsequent quantification in the same images. For the determination of the expression of the proteins fibulin-5 and LOXL1 the cells were washed with PBS 48 hours after the treatments and were fixed with paraformaldehyde. Next, duplicates of each treatment were used to mark separately the fibulin-5 and LOXL1 proteins. For each of the proteins a specific primary monoclonal antibody was used (Abcam). After the primary incubation, the cells were washed with PBS and the secondary marking was carried out with specific fluorescent polyclonal antibodies for each primary antibody. For fibulin-5 an Alexa Fluor® 594 (red) secondary antibody was used and for LOXL1 an Alexa Fluor® 488 (green) secondary antibody was used. 16 hours later all the samples were stained with DAPI (4′,6-Diamidino-2-Phenylindole), fluorescent marker for the staining of nuclei, and the photographic recording was carried out by fluorescence microscopy in a Leica microscope. 2-4 images were taken per condition and per protein and the fluorescent signals were quantified (IOD) corresponding to each protein and the nuclei by means of image analysis software. The fibulin-5 and LOXL1 signals were normalized according to the number of total nuclei for each image. 3 independent assays were carried out."}}, "note": "Values joined by “and” are separate entries in the source; they are usually repeats but may differ in a detail not shown here. Equal values may be shown once."}
{"substance": "Ac-L-Asp-L-Val-L-Lys-L-Tyr-OH (Ac-DVKY-OH)", "values": [{"measurement": "Increase in the activity of the human promoter of the LOXL1 gene with regard to the negative control", "setting": "[1]; 0.1 mg/mL", "value": 7.12, "unit": "%"}, {"measurement": "Increase in the activity of the human promoter of the LOXL1 gene with regard to the negative control", "setting": "[1]; 1 mg/mL", "value": "27% and 27.06%"}, {"measurement": "Increase in the activity of the human promoter of the LOXL1 gene with regard to the negative control", "setting": "[1]; 2 mg/mL", "value": 10.41, "unit": "%"}, {"measurement": "Increase in the expression of the protein LOXL1 with regard to the negative control", "setting": "LOXL1", "value": "73% and 72.71%"}, {"measurement": "Increase in the activity of the human promoter of the FIBULIN 5 gene with regard to the negative control", "setting": "[2]; 0.1 mg/mL", "value": 7.46, "unit": "%"}, {"measurement": "Increase in the activity of the human promoter of the FIBULIN 5 gene with regard to the negative control", "setting": "[2]; 1 mg/mL", "value": "19% and 19.40%"}, {"measurement": "Increase in the activity of the human promoter of the FIBULIN 5 gene with regard to the negative control", "setting": "[2]; 2 mg/mL", "value": 53.20, "unit": "%"}, {"measurement": "Increase in the expression of the protein fibulin-5 with regard to the negative control", "setting": "fibulin-5", "value": "134% and 133.90%"}]}
